A value given as a limit tells only on which side of the number the result lay.

In this experiment the target is T1, human recombinant USP30 (Homo sapiens, UniProt Q70CQ3).
T1 construct: purchased Boston Biochem E-582
T1 sequence (Q70CQ3 1-517): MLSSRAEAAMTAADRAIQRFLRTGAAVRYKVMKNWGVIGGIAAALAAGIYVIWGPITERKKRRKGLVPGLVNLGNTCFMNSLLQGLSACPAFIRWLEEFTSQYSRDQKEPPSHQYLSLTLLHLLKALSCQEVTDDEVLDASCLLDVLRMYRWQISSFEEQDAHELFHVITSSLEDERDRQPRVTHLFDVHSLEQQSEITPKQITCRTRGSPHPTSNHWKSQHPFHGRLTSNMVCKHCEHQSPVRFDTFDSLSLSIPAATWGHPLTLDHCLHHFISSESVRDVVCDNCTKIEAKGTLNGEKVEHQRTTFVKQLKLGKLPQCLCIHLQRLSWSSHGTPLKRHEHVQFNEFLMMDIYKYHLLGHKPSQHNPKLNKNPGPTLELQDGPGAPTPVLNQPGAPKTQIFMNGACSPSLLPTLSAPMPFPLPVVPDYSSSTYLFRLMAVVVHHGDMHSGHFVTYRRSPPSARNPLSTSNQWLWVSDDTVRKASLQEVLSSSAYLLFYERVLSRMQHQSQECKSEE
Put plainly: Ubiquitin-Rhodamine 110 Assay for USP30 Activity (USP30 biochemical assay). The note with it: IC50 ranges; 0.4 nM enzyme, 25 nM Ub-Rh110, 30 min preincubation, test concentration 25 μM to 1.3 nM. As for the experimental part: Assay Example A: Description of Biochemical Assay: Ubiquitin-Rhodamine 110 Assay for USP30 Activity
The assay was performed in a final volume of 6 μL in assay buffer containing 20 mM Tris-HCl (pH 8.0, (1M Tris-HCl, pH 8.0 solution; Corning 46-031-CM)), 1 mM GSH (L-glutathione reduced, Sigma-Aldrich, G4251-100G), 0.03% BGG ([…], Sigma, G7516-25G), and 0.01% Triton X-100 (Sigma, T9284-10L). Nanoliter quantities of 10-point, 3-fold serial dilution in DMSO were pre-dispensed into 1536 assay plates (Corning, #3724BC) for a final test concentration of 25 μM to 1.3 nM, top to lowest dose, respectively. Concentration and incubation times were optimized for the maximal signal-to-background while maintaining initial velocity conditions at a fixed substrate concentration (<<Km). The final concentration of enzyme (human recombinant USP30, Boston Biochem, cat. #E-582) in the assay was 0.4 nM. Final substrate (Ub-R^h110; Ubiquitin-Rhodamine 110, UbiQ-126) concentration was 25 nM. 3 μL of 2× enzyme was added to assay plates (pre-stamped with compound), preincubated for 30 minutes and then treated with 3 μL of 2× substrate. Plates were read for fluorescence on the Envision (Perkin Elmer) or PheraSTAR (BMG) (excitation at 485 nm and emission at 535 nm) 5 times over the course of 11 minutes and the slope of this kinetic read used to normalize the raw data.
For all assay formats, data were reported as percent inhibition compared with control wells based on the following equation: % inh=1−((FLU−AveLow)/(AveHigh−AveLow)) where FLU=measured Fluorescence, AveLow=average Fluorescence of no enzyme control (n=32), and AveHigh=average Fluorescence of DMSO control (n=32). IC50 values were determined by curve fitting of the standard 4 parameter logistic fitting algorithm included in the Activity Base software package: IDBS XE Designer Model205. Data are fitted using the Levenburg Marquardt algorithm.
One may read the IC50 as the point on the concentration scale where inhibition reaches its midpoint. Turning to `N#CN1CC[C@@H]2CCN(c3ncc(C4CCCCC4)s3)C(=O)[C@H]2C1` (single isomer, unassigned) [1-12R,R], the IC50 is 0.1 to 1 µM.

On to `N#CN1CC[C@H]2CCN(c3ncc(C4CCCCC4)s3)C(=O)[C@H]2C1` (single isomer, unassigned) [1-12S,R], for which the IC50 was 1 to 10 µM.

`N#CN1CC[C@H]2CCN(c3ncc(C4CCCCC4)s3)C(=O)[C@@H]2C1` (single isomer, unassigned) [1-12S,S]: the IC50 fell in the range of 1 to 10 µM.

Turning to `N#CN1CCN2CCN(c3ncc(N4CCCC[C@@H]4Cc4ccccc4)s3)C(=O)[C@H]2C1` (single isomer, unassigned) [1-118R,R], the IC50 was in the range of 0.1 to 1 µM.

Regarding `N#CN1CCN2CCN(c3ncc(N4CCCC[C@H]4Cc4ccccc4)s3)C(=O)[C@H]2C1` (single isomer, unassigned) [1-118R,S], the IC50 was under 0.1 µM.

`N#CN1CCN2CCN(c3ncc(N4CCCC[C@@H]4Cc4ccccc4)s3)C(=O)[C@@H]2C1` (single isomer, unassigned) [1-118S,R]: the IC50 fell in the range of 0.1 to 1 µM.

With `N#CN1CCN2CCN(c3ncc(N4CCCC[C@H]4Cc4ccccc4)s3)C(=O)[C@@H]2C1` (single isomer, unassigned) [1-118S,S], the IC50 lay in the range of 0.1 to 1 µM.

Turning to `N#CN1CC[C@@H]2CCN(c3ncc(C4CCCCC4)s3)C[C@@H]2C1` (single isomer, unassigned) [4-1R,S], the IC50 lay within 1 to 10 µM.

On to `N#CN1CC[C@H]2CCN(c3ncc(C4CCCCC4)s3)C[C@H]2C1` (single isomer, unassigned) [4-1S,R], for which the IC50 fell in the range of 1 to 10 µM.

With `N#CN1CC[C@H]2CN(c3ncc(C4CCCCC4)s3)C(=O)[C@H]2C1` (single isomer, unassigned) [5-1R,R], the IC50 is 10 to 25 µM.

Take `N#CN1CC[C@@H]2CN(c3ncc(C4CCCCC4)s3)C(=O)[C@@H]2C1` (single isomer, unassigned) [5-1S,S]: the IC50 was in the range of 1 to 10 µM.

Regarding `N#Cc1cccc(-c2cnc(N3C[C@H]4CN(C#N)CC[C@H]4C3)nc2)c1` (single isomer, unassigned) [5-2R,R], the IC50 was over 25 µM.

Regarding `N#Cc1cccc(-c2cnc(N3C[C@H]4CCN(C#N)C[C@H]4C3)nc2)c1` (single isomer, unassigned) [5-2S,S], the IC50 was in the range of 10 to 25 µM.

For the compound `N#CN1CCN2CCN(c3ncc(C4CCCCC4)s3)C(=O)[C@H]2C1` (single isomer, unassigned) [Compound 1-1R], the IC50 is under 0.1 µM.

With `N#CN1CCN2CCN(c3ncc(C4CCCCC4)s3)C(=O)[C@@H]2C1` (single isomer, unassigned) [Compound 1-1S], the IC50 lay within 0.1 to 1 µM.

For the compound `CC(C)(C)c1sc(N2CCN3CCN(C#N)C[C@@H]3C2=O)nc1Cl` (single isomer, unassigned) [Compound 1-2R], the IC50 is under 0.1 µM.

For the compound `CC(C)(C)c1sc(N2CCN3CCN(C#N)C[C@H]3C2=O)nc1Cl` (single isomer, unassigned) [Compound 1-2S], the IC50 was under 0.1 µM.

Turning to `N#CN1CCN2CCN(c3nc(Cl)c(C4CCCCC4)s3)C(=O)[C@H]2C1` (single isomer, unassigned) [Compound 1-3R], the IC50 was under 0.1 µM.

As for `N#CN1CCN2CCN(c3nc(Cl)c(C4CCCCC4)s3)C(=O)[C@@H]2C1` (single isomer, unassigned) [Compound 1-3S], the IC50 was under 0.1 µM.

For `N#Cc1cccc(-c2cnc(N3CCN4CCN(C#N)C[C@@H]4C3=O)nc2)c1` (single isomer, unassigned) [Compound 1-4R], the IC50 was 1 to 10 µM.

For the compound `N#Cc1cccc(-c2cnc(N3CCN4CCN(C#N)C[C@H]4C3=O)nc2)c1` (single isomer, unassigned) [Compound 1-4S], the IC50 was in the range of 1 to 10 µM.

For `N#CN1CCN2CCN(c3ncc(-c4cccc(Cl)c4)cn3)C(=O)[C@H]2C1` (single isomer, unassigned) [Compound 1-5R], the IC50 is 1 to 10 µM.

Regarding `N#CN1CCN2CCN(c3ncc(-c4cccc(Cl)c4)cn3)C(=O)[C@@H]2C1` (single isomer, unassigned) [Compound 1-5S], the IC50 was in the range of 1 to 10 µM.

In the case of `N#Cc1cccc(-c2cnc(N3CCN4CCN(C#N)C[C@@H]4C3=O)s2)c1` (single isomer, unassigned) [Compound 1-6R], the IC50 was under 0.1 µM.

As for `N#Cc1cccc(-c2cnc(N3CCN4CCN(C#N)C[C@H]4C3=O)s2)c1` (single isomer, unassigned) [Compound 1-6S], the IC50 is under 0.1 µM.

With `N#CN1CCN2CCN(c3ncc(-c4cccc(Cl)c4)s3)C(=O)[C@H]2C1` (single isomer, unassigned) [Compound 1-7R], the IC50 was under 0.1 µM.

As to `N#CN1CCN2CCN(c3ncc(-c4cccc(Cl)c4)s3)C(=O)[C@@H]2C1` (single isomer, unassigned) [Compound 1-7S], the IC50 was under 0.1 µM.

On to `N#CN1CCN2CCN(c3cc(-c4cccc(Cl)c4)on3)C(=O)[C@H]2C1` (single isomer, unassigned) [Compound 1-11R], for which the IC50 was over 25 µM.

For `N#CN1CCN2CCN(c3cc(-c4cccc(Cl)c4)on3)C(=O)[C@@H]2C1` (single isomer, unassigned) [Compound 1-11S], the IC50 is over 25 µM.

Consider `N#CN1CCN2CCN(c3ncc(-c4ccccc4)s3)C(=O)[C@H]2C1` (single isomer, unassigned) [Compound 1-14R], for which the IC50 was under 0.1 µM.

In the case of `N#CN1CCN2CCN(c3ncc(-c4ccccc4)s3)C(=O)[C@@H]2C1` (single isomer, unassigned) [Compound 1-14S], the IC50 was in the range of 0.1 to 1 µM.

As to `CC(C)(C)c1cnc(N2CCN3CCN(C#N)C[C@]3(C)C2=O)s1` (single isomer, unassigned) [Compound 1-15R], the IC50 lay in the range of 1 to 10 µM.

`N#CN1CCN2CCN(c3cc(-c4ccccc4Oc4ccccc4)[nH]n3)C(=O)[C@H]2C1` (single isomer, unassigned) [Compound 1-114R]: the IC50 lay within 0.1 to 1 µM.

In the case of `N#CN1CCN2CCN(c3cc(-c4ccccc4Oc4ccccc4)[nH]n3)C(=O)[C@@H]2C1` (single isomer, unassigned) [Compound 1-114S], the IC50 was in the range of 0.1 to 1 µM.

Consider `N#CN1CCN2CCN(c3ncc(-c4cccc(CN5CCC5)c4)s3)C(=O)[C@H]2C1` (single isomer, unassigned) [Compound 1-115R], for which the IC50 was 1 to 10 µM.

In the case of `N#CN1CCN2CCN(c3ncc(-c4cccc(CN5CCC5)c4)s3)C(=O)[C@@H]2C1` (single isomer, unassigned) [Compound 1-115S], the IC50 fell in the range of 1 to 10 µM.

Take `CC(C)(C)c1sc(N2CCN3CCN(C#N)C[C@@]3(F)C2=O)nc1Cl` (single isomer, unassigned) [Compound 1-116R]: the IC50 is 1 to 10 µM.

With `CC(C)(C)c1sc(N2CCN3CCN(C#N)C[C@]3(F)C2=O)nc1Cl` (single isomer, unassigned) [Compound 1-116S], the IC50 lay within 1 to 10 µM.

For the compound `C[C@]12CN(C#N)CCN1CCN(c1ncc(C3CCCCC3)s1)C2=O` (single isomer, unassigned) [Compound 1-117R], the IC50 is under 0.1 µM.

Consider `C[C@@]12CN(C#N)CCN1CCN(c1ncc(C3CCCCC3)s1)C2=O` (single isomer, unassigned) [Compound 1-117S], for which the IC50 lay within 1 to 10 µM.

On to `N#CN1CC(=O)N2CCN(c3ncc(C4CCCCC4)s3)C[C@H]2C1` (single isomer, unassigned) [Compound 3-1R], for which the IC50 is under 0.1 µM.

`N#CN1CC(=O)N2CCN(c3ncc(C4CCCCC4)s3)C[C@@H]2C1` (single isomer, unassigned) [Compound 3-1S]: the IC50 was in the range of 0.1 to 1 µM.

`CC(C)(C)c1sc(N2CC(=O)N3CCN(C#N)C[C@@H]3C2=O)nc1Cl` (single isomer, unassigned) [Compound 6-1R]: the IC50 is under 0.1 µM.

Regarding `CC(C)(C)c1sc(N2CC(=O)N3CCN(C#N)C[C@H]3C2=O)nc1Cl` (single isomer, unassigned) [Compound 6-1S], the IC50 is under 0.1 µM.

The record behind these values is patent publication US12049466B2, “Fused bicyclic compounds useful as ubiquitin-specific peptidase 30 inhibitors” (FORMA Therapeutics, Inc., priority 2018, dated 2024).
